Target: Polymerase acidic protein (Influenza A virus (A/Puerto Rico/8/1934(H1N1)), UniProt P03433)
Assay: Inhibition of cap 1 ALMV primed Influenza transcriptase

Structure (SMILES)	IC50 [µM]
COCON1C(=O)[C@H]([C@H](O)C(C)C)N(Cc2ccccc2)[C@@H](CC(C)C)C1=O	> 200
COCON1C(=O)C(CC(C)C)=N/C(=C\c2ccc(OC)cc2)C1=O	> 200
COCON1C(=O)/C(=C\C(C)C)N(Cc2ccccc2)[C@@H](Cc2ccccc2)C1=O	> 200
O=C1C(Cc2ccccc2)NC(Cc2ccc(F)cc2)C(=O)N1O (stereo not drawn)	85
COCON1C(=O)C(Cc2ccccc2)=N/C(=C\C(C)C)C1=O	> 200
COCON1C(=O)/C(=C/c2ccccc2F)N(Cc2ccccc2)[C@@H](CC(C)C)C1=O	> 200
COCON1C(=O)C(CC(C)C)=N/C(=C\C(C)C)C1=O	> 200
CC(C)CC1=N/C(=C\c2ccc(F)cc2)C(=O)NC1=O	> 200
COCON1C(=O)C(CC(C)C)=N/C(=C\c2ccc(F)cc2)C1=O	> 200
COCON1C(=O)C(CC(C)C)=N/C(=C\c2ccccc2F)C1=O	> 200
COCON1C(=O)[C@H]([C@@H](O)C(C)C)N(Cc2ccccc2)[C@@H](Cc2ccccc2)C1=O	> 200
COCON1C(=O)C(Cc2ccccc2)=N/C(=C\c2ccc(F)cc2)C1=O	> 200
COCON1C(=O)C(Cc2ccccc2)=N/C(=C\c2ccc(OC)cc2)C1=O	> 200
COCON1C(=O)[C@H]([C@H](O)C(C)C)N(Cc2ccccc2)[C@@H](Cc2ccccc2)C1=O	> 200
COCON1C(=O)/C(=C\C(C)C)N(Cc2ccccc2)[C@@H](CC(C)C)C1=O	> 200
COCON1C(=O)C(CC(C)C)=N/C(=C\c2ccccc2)C1=O	> 200
COCON1C(=O)C(CC(C)C)=N/C(=C\c2cccc(F)c2)C1=O	> 200
CC(C)/C=C1\N=C(CC(C)C)C(=O)N(O)C1=O	5.1
